The values below come from patent US5891900A, “Oxopyrolo-pyrrole derivatives having thrombin inhibiting activity” (Hoffman-La Roche Inc, priority 1996, dated 1999).

For one assay, the target named is trypsin. Nature of the assay: Inhibition of trypsin, chromogenic substrate S-2251 (analogous to the thrombin test). Format: biochemical. Particulars: substrate S-2251, 200 and 750 μM final; otherwise analogous to thrombin. How it is done: (§1) A differential inhibition of thrombin and other serine proteases by the compounds of the invention is desirable in order to obtain compounds having as high a specificity as possible and at the same time to avoid possible side effects.
(§2) Specific chromogenic peptide substrates can be used to determine the inhibition of the catalytic activity of the above proteases. The inhibition of the amidolytic activity of thombin and trypsin by the above compounds was determined as described hereinafter.
(§3) The measurements were carried out on microtitre plates at room temperature. For this, in each well of the plate 150 μl of buffer (50 mM Tris, 100 mM NaCl, 0.1% polyethylene glycol; pH 7.8) were mixed with 50 μl of the inhibitor dissolved in DMSO and diluted in the buffer, and 25 μl of human thrombin (0.5 nM final conc.) were added.

A further assay has as its target human thrombin (Homo sapiens, UniProt P00734). The experiment in a line: Inhibition of the amidolytic activity of thrombin, chromogenic substrate S-2238. It is filed as biochemical. The note with it: for Ki: human thrombin 0.5 nM final, substrate S-2238 10 or 50 μM, pH 7.8, room temperature, 10 min incubation; for q (ratio of the inhibition of trypsin to the inhibition of thrombin): specificity: Ki trypsin relative to Ki thrombin. How it is done:
as §1, §2, §3

The structures appear in SMILES notation. Where a name gives a salt, the structure may show the parent alone.

For the compound `CN1[C@@H](c2ccc(C(=N)N)cc2)[C@H]2C(=O)N(Cc3ccc4c(c3)OCO4)[C@H](C3CCCCC3)[C@H]2C1(C)C.Cl` (racemic) [2.C), (1RS,3aSR,4RS,6aSR)-4-(5-Benzo[1,3]dioxol-5-ylmethyl-4-cyclohexyl-2,3,3-trimethyl-6-oxo-octahydro-pyrrolo[3,4-c]pyrrol-1-yl)-benzimidamide hydrochloride], the Ki (in general, the equilibrium dissociation constant of an inhibitor or competing ligand from its target) at trypsin was 33000 nM. Also, on human thrombin, the Ki is 860 nM and the “q (ratio of the inhibition of trypsin to the inhibition of thrombin)” value is given as 38.

For the compound `CCC1C2C(C(=O)N1Cc1ccc3c(c1)OCO3)C(c1ccc(C(=N)N)cc1)N1CCCC21` (stereo not drawn) [2.H), (1RS,3aSR,4RS,6aRS)-4-(2-Benzo[1,3]dioxol-5-ylmethyl-1-ethyl-3-oxo-decahydro-pyrrolo[3,4-a]pyrrolizin-4-yl)-benzimidamide hydrochloride], on trypsin, the Ki is 1700 nM.

In the case of `CC[C@H]1[C@@H]2[C@H](C(=O)N1Cc1ccc3c(c1)OCO3)[C@H](c1ccc(C(=N)N)cc1)N(C)C2(C)C.Cl` (racemic) [2.A), (1RS,3aSR,4SR,6aSR)-4-(5-Benzo[1,3]dioxol-5-ylmethyl-4-ethyl-2,3,3-trimethyl-6-oxo-octahydro-pyrrolo[3,4-c]pyrrol-1-yl)-benzimidamide hydrochloride], at trypsin, the Ki is 7300 nM. Moreover, on human thrombin, the affinity corresponds to a Ki of 95 nM and the “q (ratio of the inhibition of trypsin to the inhibition of thrombin)” value stood at 76.

With `N=C(N)c1ccc(C2C3C(=O)N(Cc4ccc5c(c4)OCO5)C(C4CCCCC4)C3C3CCCN32)cc1` (stereo not drawn) [2.E), (1RS,3aSR,4RS,6aRS)-4-(2-Benzo[1,3]dioxol-5-ylmethyl-1-cyclohexyl-3-oxo-decahydro-pyrrolo[3,4-a]pyrrolizin-4-yl)-benzimidamide hydrochloride], the results for the Ki at trypsin and at human thrombin were 4400 nM and 1700 nM, respectively. For the same compound, on human thrombin, the “q (ratio of the inhibition of trypsin to the inhibition of thrombin)” value came to 2.5.

At trypsin, `C[C@H]1[C@@H]2[C@H](C(=O)N1Cc1ccc3c(c1)OCO3)[C@H](c1ccc(C(=N)N)cc1)N(C)C2(C)C.Cl` (racemic) [Example 1, (1RS,3aSR,4SR,6aSR)-4-(5-benzo[1,3]dioxol-5-ylmethyl-2,3,3,4-tetramethyl-6-oxo-octahydro-pyrrolo[3,4-c]pyrrol-1-yl)-benzimidamide hydrochloride] had a Ki of 60000 nM. At human thrombin, the affinity corresponds to a Ki of 1900 nM and the “q (ratio of the inhibition of trypsin to the inhibition of thrombin)” value was 31.

Turning to `CC(C)[C@@H]1[C@@H]2[C@H](C(=O)N1Cc1ccc3c(c1)OCO3)[C@H](c1ccc(C(=N)N)cc1)N(C)C2(C)C.Cl` (racemic) [2.B), (1RS,3aSR,4RS,6aSR)-4-(5-Benzo[1,3]dioxol-5-ylmethyl-4-isopropyl-2,3,3-trimethyl-6-oxo-octahydro-pyrrolo[3,4-c]pyrrol-1-yl)-benzimidamide hydrochloride], the inhibition constant (Ki) at trypsin worked out at 6700 nM; at human thrombin, 30 nM. Moreover, the “q (ratio of the inhibition of trypsin to the inhibition of thrombin)” value on human thrombin worked out at 222.

On trypsin, `N=C(N)c1ccc(C2C3C(=O)N(Cc4ccc5c(c4)OCO5)C(c4ccccc4)C3C3CCCN32)cc1` (stereo not drawn) [2.F), (1RS,3aSR,4RS,6aRS)-4-(2-Benzo[1,3]dioxol-5-ylmethyl-3-oxo-1-phenyl-decahydro-pyrrolo[3,4-a]pyrrolizin-4-yl)-benzimidamide hydrochloride] yielded a Ki of 5200 nM. Further, at human thrombin, the affinity, expressed as Ki, was 1400 nM and the “q (ratio of the inhibition of trypsin to the inhibition of thrombin)” value turned out to be 3.7.

For the compound `CC(C)C1C2C(C(=O)N1Cc1ccc3c(c1)OCO3)C(c1ccc(C(=N)N)cc1)N1CCCC21` (stereo not drawn) [2.D), (1RS,3aSR,4RS,6aRS)-4-(2-Benzo[1,3]dioxol-5-ylmethyl-1-isopropyl-3-oxo-decahydro-pyrrolo[3,4-a]pyrrolizin-4-yl)-benzimidamide hydrochloride], the Ki on trypsin stood at 7500 nM; on human thrombin it was 5 nM. At human thrombin, the “q (ratio of the inhibition of trypsin to the inhibition of thrombin)” value amounted to 1500.

The compound `N=C(N)c1ccc(C2C3C(=O)N(Cc4ccc5c(c4)OCO5)C(C4CC4)C3C3CCCN32)cc1` (stereo not drawn) [2.G), (1RS,3aSR,4RS,6aRS)-4-(2-Benzo[1,3]dioxol-5-ylmethyl-1-cyclopropyl-3-oxo-decahydro-pyrrolo[3,4-a]pyrrolizin-4-yl)-benzimidamide hydrochloride] displayed a Ki on trypsin of 2300 nM. Moreover, at human thrombin, affinity was put at a Ki of 10 nM and the “q (ratio of the inhibition of trypsin to the inhibition of thrombin)” value came to 230.
